One series has as its system heart failure. The following applies: people with heart failure; cited from earlier work.
Another series is described as follows: solubility in water. Conditions: for solubility in water: result in words, monohydrate. Format: physicochemical.
A short description of series [1]: toxicity of the monohydrate of D-ribose.

Consider `CN(CC(=O)O)C(=N)N` [creatine], for which, in the series with heart failure, the ejection fraction entry is listed as “did not improve”; the skeletal muscle action entry is “increasing both strength and endurance”.

As to `O.O=C[C@H](O)[C@H](O)[C@H](O)CO` [ribose monohydrate, D-ribose monohydrate], the solubility in water entry in “solubility in water” (listed as H2O-ribose product) is listed as “exceptionally high”; in “solubility in water”, “very soluble in water”. In series [1], the toxicity entry is listed as “virtually no toxicity”.

With `O=C[C@H](O)[C@H](O)[C@H](O)CO` [anhydrous D-ribose, D-ribose], in “solubility in water” (per kilogram of anhydrous D-ribose, gives clear translucent amber viscous solution if enough time is allowed), the “water needed to dissolve a kilogram of anhydrous D-ribose” value is “less than 168 grams”.
